Values quoted from earlier work, collected in patent US9096579B2, “Amino-indolyl-substituted imidazolyl-pyrimidines and their use as medicaments” (Boehringer Ingelheim International GmbH, priority 2012, dated 2015).

How the values were obtained:
[1] = tested on: platelet counts in patients with ITP; conditions: single center open label study
[2] = tested on: atherosclerotic plaque size; conditions: murine model of atherosclerosis

COc1cc(Nc2ncc(F)c(Nc3ccc4c(n3)N(COP(=O)(O)O)C(=O)C(C)(C)O4)n2)cc(OC)c1OC [R788 (R406)]
platelet counts [1]: improved platelet counts | atherosclerotic plaque size [2]: reduced atherosclerotic plaque size
